What was measured:
[1] = tested on: large-sized tumor xenografts representing late-stage cancer; test: Efficacy of doxorubicin nanoparticles in late-stage cancer xenograft; format: in vivo, mice; conditions: without LED stated
Protocol: The lung cancer cell line NCI-H460-luc2 (Caliper Life Sciences) was prepared in suspension at 5×10^6 cells.
Tumor growth was monitored using bioluminescence imaging of luciferase-expressing cancer cell lines. Mice were injected intraperitoneally with D-luciferin at a dosage of 150 mg luciferin/kg body weight. Mice were then anesthetized under isoflurane gas supplemented with oxygen and placed under a camera equipped with a Xenogen IVIS 200 imager to generate a bioluminescent image using an IVIS imaging system (Xenogen). Bioluminescence color images were superimposed using Living Image software.

[2] = Tumor targeting efficacy: drug distribution between tumor and healthy tissues in xenograft mice (LC/MS); format: in vivo; conditions: female, athymic nude, mouse, iv; tumor tissue; 10 mg/kg/day i.v.; organs collected 16 hours after administration
Protocol: (§1) To evaluate the tumor-targeting characteristics of the targeting-enhanced nanoparticles formulated in the Examples 1 and 2, the nanoparticles were injected into mice containing human breast xenograft tumors, and the distribution of radioactivity between tumor tissues and healthy tissues was analyzed.
(§2) When the tumors reached a size of ˜100 mm^3, mice were treated intravenously with either saline control or nanoparticle preparations prepared in Examples 1 and 2, at a dose of 10 mg/kg/day. Organs from each mouse were collected at 16 hours after nanoparticle administration and ground completely with the Beadbeater. The analyte drugs were extracted from the ground tissues with acetonitrile, and the drug concentrations in each tissue were analyzed by LC/MS. The drug concentrations delivered to each tissue relative to the Injected Dose (ID) were measured in both healthy and tumor tissues, as shown in Table 3.
(§3) Targeting-enhanced nanoparticles containing paclitaxel were administered intravenously to mice with tumor xenografts, and at 4 hours after injection, the mice were exposed to a light-emitting diode, LED, at the wavelength of 630 nm at an intensity of […] for 30 minutes.

[3] = tested on: human breast xenograft tumors (MDA-MB-231); test: as above; format: in vivo; conditions: 10 mg/kg/day i.v., organs collected 16 hours after administration; for healthy % ID/g: healthy tissues
Protocol: as §1, §2, §3

healthy mice = test: Toxicity (LD50) in healthy mice; format: in vivo; conditions: monitored 14 days, based on mortality
Protocol: After establishment of the tumor-xenograft model, either healthy mice or tumor-xenografted mice were divided into three groups (n=6) receiving saline solution (control group), free paclitaxel at the indicated dose, or targeting-enhanced nanoparticles in saline solution at the indicated dose of paclitaxel. […] To evaluate their toxicity, targeting-enhanced nanoparticles were administered to healthy mice and tumor-xenograft mice at 10 different dosages of paclitaxel: 20, 40, 60, 80, 100, 120, 250, 300, 350, and 400 mg/kg/day. Body weights and physical changes were monitored over 14 days, and the LD50s were calculated based on mortality.

Row | Compound | tumor growth day 0 to day 28 (FIG. 10) [1] | tissue uptake at 16 h [2] | healthy % ID/g [3] | LD50 (healthy mice) | tumor % ID/g ([3]; tumor tissue)
1 | COc1cccc2c1C(=O)c1c(O)c3c(c(O)c1C2=O)C[C@@](O)(C(=O)CO)C[C@@H]3O[C@H]1C[C@H](N)[C@H](O)[C@H](C)O1 [Free drug doxorubicin, doxorubicin] | clear tumor growth | 1.5 %ID/g | 0.4~3.4 % ID/g |  | 
2 | CC(=O)O[C@H]1C(=O)[C@@]2(C)[C@H]([C@H](OC(=O)c3ccccc3)[C@]3(O)C[C@H](OC(=O)[C@H](O)[C@@H](NC(=O)c4ccccc4)c4ccccc4)C(C)=C1C3(C)C)[C@]1(OC(C)=O)CO[C@@H]1C[C@@H]2O [Free drug paclitaxel, paclitaxel] |  | 0.52 %ID/g |  | 30 mg/kg/day | 
3 | O=C1[O][Pt]2([NH][C@@H]3CCCC[C@H]3[NH]2)[O]C1=O [Free drug oxaliplatin, oxaliplatin] |  |  | 0.1~3.5 % ID/g |  | 2.5 % ID/g
4 | Nc1ccn([C@@H]2O[C@H](CO)[C@@H](O)C2(F)F)c(=O)n1 [Free drug gemcitabine, gemcitabine] |  | 2.4 %ID/g | 0.2~4.2 % ID/g |  | 

— patent US10286004B2, “Targeting-enhanced anticancer nanoparticles and preparation methods of same” (JINIS CO., LTD., priority 2013, dated 2019)
